Laboratory results as given in PubChem BioAssay (NCI).
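How tested: cells in 96-well plates exposed to compound for 48 hours at five concentrations. Definition used: TGI = concentration required for complete inhibition of growth.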

How the values were obtained:
Experiment in all cases: NCI anticancer screen, dose series, 48 h
T-47D breast = test system: T-47D breast
MDA-MB-435 = test system: MDA-MB-435
HT29 colon = test system: HT29 colon
U251 CNS = test system: U251 CNS
EKVX NSCLC = test system: EKVX NSCLC
SR leukemia = test system: SR leukemia
SW-620 colon = test system: SW-620 colon
NCI-H522 lung = test system: NCI-H522 lung
MCF7 breast = test system: MCF7 breast
SF-295 CNS = test system: SF-295 CNS

Structure (SMILES)	TGI (T-47D breast)	TGI (MDA-MB-435)	TGI (HT29 colon)	TGI (U251 CNS)	TGI (EKVX NSCLC)	TGI (SR leukemia)	TGI (SW-620 colon)	TGI (NCI-H522 lung)	TGI (MCF7 breast)	TGI (SF-295 CNS)
CN1CCN(C(=O)c2cn(Cc3cncn3Cc3ccc4c(c3)OCO4)cc2-c2cccc3ccccc23)CC1	> 100 µM	> 58.9 µM	> 95.5 µM	> 100 µM	> 100 µM	10.3 µM	> 100 µM	84.1 µM	> 83.6 µM	70.6 µM
C/C(=N\Nc1nc2ccccc2s1)c1ccncn1	> 100 µM	> 100 µM	14 µM	> 100 µM	10.2 µM	> 100 µM	> 100 µM	2.05 µM	> 100 µM	20.5 µM
O=C1NC(O)c2cc3ccccc3cc2O1 (stereo not given)	> 100 µM	> 100 µM	> 100 µM	87.3 µM	> 100 µM	71.3 µM	> 100 µM	> 100 µM	> 100 µM	> 100 µM
O=C(O)CSC(CC(=O)c1ccc(Cl)cc1)c1ccc(Cl)cc1 (stereo not given)	98.4 µM	> 100 µM	> 100 µM	> 100 µM	> 100 µM	7.37 µM	> 100 µM	45.3 µM	> 100 µM	> 100 µM
Cc1c(C)c2c(c(N)c1C#N)C(=O)N(N)C2=O	> 100 µM	> 100 µM	> 100 µM	> 100 µM	> 100 µM	> 100 µM	> 100 µM	> 100 µM	> 100 µM	> 100 µM
Oc1ccc(C(O)C2CCCCN2)cc1O (stereo not given)	54.3 µM	> 100 µM	> 100 µM	> 100 µM	> 100 µM	> 100 µM	> 100 µM	> 100 µM	> 100 µM	> 100 µM
C[n+]1cccc2ccc3cccnc3c21	96.5 µM	> 100 µM	> 100 µM	> 100 µM	> 100 µM	> 100 µM	> 100 µM	35.1 µM	> 100 µM	> 100 µM
Cn1/c(=N\N=C2\C=C3CCCCC3(C)CC2)sc2ccccc21 (stereo not given)	> 100 µM	> 100 µM	> 100 µM	> 100 µM	> 100 µM	> 100 µM	> 100 µM	> 100 µM	> 100 µM	> 100 µM
COC(=N)C1(C#N)NC(c2ccsc2)C(C#N)(C#N)NC1c1ccsc1 (stereo not given)	> 100 µM	> 100 µM	> 100 µM	> 100 µM	> 100 µM	> 100 µM	> 100 µM	> 100 µM	> 100 µM	> 100 µM
CCOC(=O)c1c(-c2ccc(OC)cc2)ccn1C	> 10 µM	> 10 µM	> 10 µM	> 10 µM	> 10 µM	> 10 µM	> 10 µM	> 10 µM	> 10 µM	> 10 µM
Clc1ccc2c(c1)N(CCCN1CCCC13CCCCC3)c1ccccc1S2	30 µM	27.4 µM	15.7 µM	23.6 µM	> 44 µM	17.5 µM	40.7 µM	25.1 µM	32.3 µM	29.2 µM
CC(=O)n1[nH]c(=O)n(-c2ccc(Cl)cc2)c1=O	> 100 µM	> 100 µM	> 100 µM	> 100 µM	> 100 µM	> 100 µM	> 100 µM	> 100 µM	> 100 µM	> 100 µM
CC(=O)CC1(CBr)Nc2ccc([N+](=O)[O-])cc2NC1=O (stereo not given)	> 100 µM	> 100 µM	> 100 µM	> 100 µM	> 100 µM	> 100 µM	> 100 µM	41.6 µM	> 100 µM	> 100 µM
CCc1nc(N)c2nc(-c3cccs3)oc2n1	> 100 µM	> 100 µM	> 100 µM	> 100 µM	> 100 µM	> 100 µM	> 100 µM	> 100 µM	> 100 µM	> 100 µM
C[C@]12CC[C@H]3[C@@H](CC=C4C[C@@H](N5CCCC5)CC[C@@]43C)[C@@H]1C[C@H](N1CCCCC1)[C@@H]2O	> 100 µM	> 100 µM	> 100 µM	> 100 µM	> 100 µM	35.7 µM	> 100 µM	> 100 µM	> 100 µM	> 100 µM
O=c1c2cc(Br)cc(Br)c2[nH]c(=S)n1-c1ccc(N=Nc2ccc(O)c3cccnc23)cc1	> 100 µM	> 100 µM	> 100 µM	62.3 µM	> 100 µM	> 100 µM	> 100 µM	60.8 µM	25.9 µM	> 100 µM
C=C1CCC[C@@H](C)C(O)[C@@H]2OC(=O)C(=C)[C@@H]2C[C@@H](OC(C)=O)[C@@]2(C)CC[C@@H]1O2 (stereo not given in full)	19.2 µM	15.1 µM	15.3 µM	17.8 µM	15.1 µM	9.91 µM	16.7 µM	4.93 µM	11.6 µM	38.5 µM
